Consider two compounds from patent US12054495B2, “Substituted macrocyclic compounds and related methods of treatment” (Alkermes, Inc., priority 2019, dated 2024).

The test system of the data set is MDR1. Description: MDCK-MDR1 permeability assay. In kind it is in vitro ADME. The conditions noted are these: dog; for Papp A→B at 2 h, 3 μM: MDCK-MDR1, MDCK-MDR1 cells, apical to basolateral, 3 μM test compound, 2 hours at 37 degrees C; for efflux ratio at 2 h, 3 μM: MDCK-MDR1, Papp (basolateral to apical) divided by Papp (apical to basolateral), MDCK-MDR1 cells, read-out: Efflux ratio (ER). The essentials:
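Bidirectional transport across MDCK-MDR1 monolayers with test compound at 3 μM in HBSS, Lucifer Yellow 100 μM co-dosed as integrity marker; 2 h at 37 °C, donor and receiver quantified by LC-MS/MS. Papp = dQ/dt × 1/(A×C0); efflux ratio = Papp(B→A)/Papp(A→B), ER>2 taken as active transport.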

Structures are written as SMILES.

By Papp A→B is commonly meant the apparent permeability from the apical to the basolateral side of a cell layer. A low value points to poor permeation. Regarding `CS(=O)(=O)N[C@@H]1CCCN2C(=O)COc3cccc(F)c3[C@H]3CC[C@H](CC3)OC[C@H]12` (racemic) [Compound 49], the Papp A→B at 2 h, 3 μM was found to be 0.72 ×10⁻⁶ cm/s and the efflux ratio at 2 h, 3 μM stood at 36.
Take `COC(=O)N1CCC[C@H](NS(C)(=O)=O)[C@@H]1CO[C@H]1CC[C@@H](c2ccccc2)CC1` [methyl (2R,3S)-3-((methylsulfonyl)amino)-2-(((cis-4-phenylcyclohexyl)oxy)methyl)-piperidine-1-carboxylate, reference compound]: the Papp A→B at 2 h, 3 μM was 5.9 ×10⁻⁶ cm/s and the efflux ratio at 2 h, 3 μM was 4.
